Data on three compounds can be found in paper PMC8943889, “Synthetic studies with the brevicidine and laterocidine lipopeptide antibiotics including analogues with enhanced properties and in vivo efficacy” (Chemical Science, 2022).

Molecules are shown by their SMILES. ≈ marks a conversion by molar mass, not a printed value. Bounds are passed on as bounds.

Assay type in all cases: cell-based
The subject of one experiment is A. baumannii ATCC 17978. Particulars: ATCC 17978, 16 h. As for the experimental part:
(§1) Minimum inhibitory concentrations (MICs) were determined by broth microdilution according to CLSI guidelines in triplicate. Blood agar plates were inoculated with glycerol stocks of E. coli ATCC 25922, E. coli MCR-1 (clinical isolate from Utrecht Medical Centre, NL), E. coli EQAS MCR-2 (clinical isolate from Wageningen University and Research, NL), K. pneumoniae ATCC 11228, K. pneumoniae ATCC 13883, K. pneumonia 2048 (clnical isolate from Vrije Universiteit Amsterdam Medical Centre, NL), K. pneumonia JS-123 (clinical isolate from Utrecht Medical […]
(§2) (clinical isolate from Rijksinstituut voor Volksgezondheid en Milieu, NL), A. baumannii MDR (clinical isolate from Vrije Universiteit Amsterdam Medical Centre, NL), P. aeruginosa ATCC 27853, P. aeruginosa PAO1, P. aeruginosa NRZ-03961 (Reference strain from Das Nationale Referenzzentrum für gramnegative Krankenhauserreger, DE), P. aeruginosa M-120 (clinical isolate from Leiden University Medical Centre, NL) and S. aureus USA300 (clinical isolate from Texas Children's Hospital, USA). E. coli 25922 MCR1 was grown on LB agar supplemented with kanamycin. The inoculated agar plates were then incubated for 16 h at 37°C . Individually grown colonies were subsequently used to inoculate 3 mL aliquots of TSB that were then incubated at 37°C with shaking at 220 rpm. In parallel, the lipopeptide antibiotics to be assessed were serially diluted with Mueller-Hinton broth (MHB) in polypropylene 96-well plates (50 µL in each well).
(§3) Once the OD600 of the bacterial suspensions reached 0.5, the bacteria were diluted with MHB (final concentration 2 × 10^5 CFU mL−1) and added to the microplates containing the test compounds (50 µL to each well, final volume: 100 µL). The well-plates were sealed with an adhesive membrane and after 16 h of incubation at 37°C with shaking at 220 rpm the wells were visually inspected for bacterial growth. MIC values reported are based on three technical replicates and defined as the lowest concentration of the compound that prevented visible growth of bacteria. […]

Another experiment has as its system A. baumannii 2018-006. To be noted: 2018-006, 16 h. On the procedure: as §1, §2, §3
The next experiment relates to K. pneumoniae JS-123. To be noted: JS-123, 16 h. As for the experimental part:
as §1, §2, §3

A further experiment has as its system P. aeruginosa PAO1. Particulars: PAO1, 16 h. As for the experimental part:
as §1, §2, §3

The next experiment relates to P. aeruginosa NRZ-03961. To be noted: NRZ-03961, 16 h. On the procedure: as §1, §2, §3
Another experiment has as its system K. pneumoniae 2048. To be noted: 2048, 16 h. As for the experimental part: as §1, §2, §3
The subject of a further experiment is K. pneumoniae ATCC 11228. To be noted: ATCC 11228, 16 h. On the procedure:
as §1, §2, §3

For another experiment, the system named is A. baumannii ATCC 17961. To be noted: ATCC 17961, 16 h. On the procedure: as §1, §2, §3
Another experiment deals with P. aeruginosa M-120. To be noted: M-120, 16 h. On the procedure:
as §1, §2, §3

The next experiment concerns P. aeruginosa ATCC 27853. Particulars: ATCC 27853, 16 h. As for the experimental part: as §1, §2, §3
Another experiment relates to S. aureus USA300. To be noted: USA300, 16 h. As for the experimental part:
as §1, §2, §3

The subject of a further experiment is K. pneumoniae ATCC 13883. To be noted: ATCC 13883, 16 h. As for the experimental part: as §1, §2, §3
Experiment [1] deals with E. coli ATCC 25922. To be noted: ATCC 25922, 16 h. As for the experimental part: as §1, §2, §3
Experiment [2] relates to E. coli ATCC 25922. In words: LPS antagonization assay. To be noted: E. coli ATCC 25922, MHB supplemented with 1 mg/mL LPS from E. coli O55:B5, 16 h 37 °C. On the procedure: Figure S6. LPS antagonization assay. A blood agar plate was inoculated with a glycerol stock of E. coli ATCC 25922. The […]
inoculated agar plate was then incubated for 16 h at 37 °C. An individually grown colony was subsequently used to inoculate 3 mL […]
of TSB that was then incubated at 37 °C with shaking at 220 rpm. In parallel, the compounds to be assessed were serially diluted […]
with Mueller-Hinton broth (MHB) in polypropylene 96-well plates (50 µL in each well). Once the OD600 of the bacterial […]
suspensions reached 0.5, the bacteria were diluted with MHB (final concentration 2 × 10^5 CFU mL−1). The media were then either […]
supplemented with 1 mg/mL of LPS (lipopolysaccharides from E. coli O55:B5, Sigma-Aldrich) or added directly to the microplates […]
containing the test compounds (50 µL to each well, final volume: 100 µL). The well-plates were sealed with an adhesive membrane and after 16 h of incubation at 37°C with shaking at 220 rpm. The w ells were visually inspected for bacterial growth.
(1 picture or pasted object on this page, not shown here)

The next experiment concerns Gram-negative bacteria. In words: MIC comparison across the bacterial panel of Table 1. Particulars: enantiomer versus natural product, strains of Table 1. On the procedure: as §1
as §2, with “Individually grown colonies were subsequently used to inoculate 3 mL aliquots of TSB that were then incubated at 37°C with shaking at 220 rpm.” left out, “well). […]” for “well).”

What is called MIC is the least concentration at which growth counts as inhibited. High values mean weaker potency, low ones greater potency. With `CC[C@@H](C)[C@H]1NC(=O)[C@H](NC(=O)[C@@H](Cc2c[nH]c3ccccc23)NC(=O)[C@H](CCCN)NC(=O)CNC(=O)[C@@H](CCCN)NC(=O)[C@H](CCCN)NC(=O)[C@H](Cc2c[nH]c3ccccc23)NC(=O)[C@H](Cc2ccc(O)cc2)NC(=O)[C@H](CO)NC(=O)CCCCCC(C)C)[C@H](C)OC(=O)CNC(=O)CNC(=O)[C@@H](CC(N)=O)NC1=O` (single isomer, unassigned) [ent-Lat (ent-2), ent-laterocidine], the minimum inhibitory concentration (MIC) turned out to be 4 µg/mL (≈ 2.49 µM) against A. baumannii ATCC 17978; 4 µg/mL (≈ 2.49 µM) against A. baumannii 2018-006; 4 µg/mL (≈ 2.49 µM) against K. pneumoniae JS-123; 16 µg/mL (≈ 9.97 µM) in the experiment on P. aeruginosa PAO1; 16 µg/mL (≈ 9.97 µM) against P. aeruginosa NRZ-03961; 16 µg/mL (≈ 9.97 µM) against K. pneumoniae 2048. Also, the MIC against K. pneumoniae ATCC 11228 turned out to be 16 µg/mL (≈ 9.97 µM); in the experiment with A. baumannii ATCC 17961, 4 µg/mL (≈ 2.49 µM); in the experiment on P. aeruginosa M-120 it was 16 µg/mL (≈ 9.97 µM); in the experiment on P. aeruginosa ATCC 27853 it was 8 µg/mL (≈ 4.98 µM); against S. aureus USA300, 64 µg/mL (≈ 39.9 µM); in the experiment on K. pneumoniae ATCC 13883, 16 µg/mL (≈ 9.97 µM). Also, in the experiment with E. coli ATCC 25922 [1], the minimal inhibitory concentration (MIC) worked out at 8 µg/mL (≈ 4.98 µM). In addition, the “decrease of antibacterial activity in the presence of LPS” value in the experiment with E. coli ATCC 25922 [2] was ≥ 8 fold. Also, the “MIC values higher than the natural products” value in the experiment on Gram-negative bacteria is reported as 8- to 32 fold.

Consider `CCC(C)CCC(=O)N[C@@H](CC(N)=O)C(=O)N[C@@H](Cc1ccc(O)cc1)C(=O)N[C@@H](Cc1c[nH]c2ccccc12)C(=O)N[C@@H](CCCN)C(=O)N[C@H](CCCN)C(=O)NCC(=O)N[C@@H](CCCN)C(=O)N[C@H](Cc1c[nH]c2ccccc12)C(=O)N[C@H]1C(=O)N[C@H]([C@H](C)CC)C(=O)NCC(=O)N[C@H](CO)C(=O)O[C@H]1C` (single isomer, unassigned) [ent-Brev (ent-1), ent-brevicidine], for which the MIC against A. baumannii ATCC 17978 was 16 to 32 µg/mL; in the experiment on A. baumannii 2018-006, 8 to 16 µg/mL; in the experiment on K. pneumoniae JS-123 it was 8 µg/mL (≈ 5.26 µM); with P. aeruginosa PAO1, 32 µg/mL (≈ 21.1 µM); in the experiment with P. aeruginosa NRZ-03961 it was 32 µg/mL (≈ 21.1 µM); against K. pneumoniae 2048, 32 µg/mL (≈ 21.1 µM). Moreover, the MIC was 32 µg/mL (≈ 21.1 µM) with K. pneumoniae ATCC 11228; 32 µg/mL (≈ 21.1 µM) with A. baumannii ATCC 17961; 16 µg/mL (≈ 10.5 µM) in the experiment on P. aeruginosa M-120; 16 µg/mL (≈ 10.5 µM) against P. aeruginosa ATCC 27853; >64 µg/mL with S. aureus USA300; 32 µg/mL (≈ 21.1 µM) in the experiment with K. pneumoniae ATCC 13883. This compound also had an MIC in the experiment on E. coli ATCC 25922 [1] of 16 µg/mL (≈ 10.5 µM). In the experiment with Gram-negative bacteria, the “MIC values higher than the natural products” value is given as 8- to 32 fold.

As for `CC[C@H](C)[C@@H]1NC(=O)[C@@H](NC(=O)[C@H](Cc2c[nH]c3ccccc23)NC(=O)[C@@H](CCCN)NC(=O)CNC(=O)[C@H](CCCN)NC(=O)[C@@H](CCCN)NC(=O)[C@@H](Cc2c[nH]c3ccccc23)NC(=O)[C@@H](Cc2ccc(O)cc2)NC(=O)[C@@H](CO)NC(=O)CCCCCC(C)C)[C@@H](C)OC(=O)CNC(=O)CNC(=O)[C@H](CC(N)=O)NC1=O` [Lat (2), laterocidine], the minimal inhibitory concentration (MIC) in the experiment with A. baumannii ATCC 17978 is 0.5 µg/mL (≈ 0.312 µM); against A. baumannii 2018-006, 2 µg/mL (≈ 1.25 µM); in the experiment on K. pneumoniae JS-123, 0.5 µg/mL (≈ 0.312 µM); with P. aeruginosa PAO1, 1 µg/mL (≈ 0.623 µM); in the experiment on P. aeruginosa NRZ-03961 it was 1 to 2 µg/mL; in the experiment on K. pneumoniae 2048 it was 2 µg/mL (≈ 1.25 µM). The minimum inhibitory concentration (MIC) against K. pneumoniae ATCC 11228 is 2 µg/mL (≈ 1.25 µM); in the experiment with A. baumannii ATCC 17961, 0.5 µg/mL (≈ 0.312 µM); against P. aeruginosa M-120 it was 1 µg/mL (≈ 0.623 µM); with P. aeruginosa ATCC 27853, ≤0.5 µg/mL; against S. aureus USA300, 64 µg/mL (≈ 39.9 µM); in the experiment on K. pneumoniae ATCC 13883, 1 µg/mL (≈ 0.623 µM). Also, the minimal inhibitory concentration (MIC) in the experiment with E. coli ATCC 25922 [1] is 1 µg/mL (≈ 0.623 µM). The “decrease of antibacterial activity in the presence of LPS” value in the experiment with E. coli ATCC 25922 [2] is given as ≥ 8 fold.
